This note sets out measurements from patent publication US20230089073A1 (Carmot Therapeutics, Inc., priority 2021, published 2023).

By EC50 is commonly meant the concentration that produces a half-maximal response.

SMILES strings stand for the structures. A value given as a limit tells only on which side of the number the result lay.

The target of this experiment is T1, human GLP-1 receptor (Homo sapiens, UniProt P43220).
T1 construct: expressed in transfected cells
T1 sequence (P43220 24-463): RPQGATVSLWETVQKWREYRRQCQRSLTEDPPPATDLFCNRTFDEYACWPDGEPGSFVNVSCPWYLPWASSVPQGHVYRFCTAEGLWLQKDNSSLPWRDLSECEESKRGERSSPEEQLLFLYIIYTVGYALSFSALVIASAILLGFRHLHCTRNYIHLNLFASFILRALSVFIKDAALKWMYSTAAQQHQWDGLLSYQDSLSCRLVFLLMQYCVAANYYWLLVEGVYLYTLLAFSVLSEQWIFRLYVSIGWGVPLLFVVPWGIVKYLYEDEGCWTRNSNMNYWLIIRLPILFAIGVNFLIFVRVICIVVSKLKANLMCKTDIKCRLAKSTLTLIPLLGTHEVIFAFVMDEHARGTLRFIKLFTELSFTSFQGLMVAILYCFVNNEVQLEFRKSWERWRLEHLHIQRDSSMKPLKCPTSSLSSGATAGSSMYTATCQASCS
The experiment can be described thus: GLP-1R cAMP Assay. The format is cell-based. The conditions noted are these: cAMP accumulation in CHO cells stably overexpressing the human GLP-1 receptor; 30 min treatment; HitHunter cAMP kit; read-out: EC50. The gist of the method:
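Luminescent enzyme-complementation detection of cAMP, read after cell lysis and overnight incubation, with dose-response curve fitting. Stimulation lasted 30 min, using 20-point triplicate dosing on CHO cells (10,000 per well) stably overexpressing human GLP-1R.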
For orientation: Cyclic AMP is a second messenger, typically raised through Gs and lowered through Gi signalling.
Regarding `CCn1cncc1Cn1c(CN2CCC(C(F)(F)c3cccc(COc4ccc(C)cc4Cl)c3)CC2)nc2ccc(C(=O)O)cc21` [Example 132, 2-((4-((3-((2-Chloro-4-methylphenoxy)methyl)phenyl)difluoromethyl)piperidin-1-yl)methyl)-1-((1-ethyl-1H-imidazol-5-yl)methyl)-1H-benzo[d]imidazole-6-carboxylic acid], the EC50 was under 50 nM.

Consider `O=C(O)c1ccc2nc(CN3CCC(Cc4cnc(COc5ncc(C6CC6)cc5Cl)o4)CC3)n(C[C@@H]3CCO3)c2c1` [Example 136, (S)-2-((4-((2-(((3-Chloro-5-cyclopropylpyridin-2-yl)oxy)methyl)oxazol-5-yl)methyl)piperidin-1-yl)methyl)-1-(oxetan-2-ylmethyl)-1H-benzo[d]imidazole-6-carboxylic acid], for which the EC50 was under 50 nM.

Turning to `Cc1ccc(OCc2cccc(CC3CCN(Cc4nc5ccc(C(=O)O)cc5n4C[C@@H]4CCO4)CC3)n2)c(CO)c1` [Example 146, (S)-2-((4-((6-((2-(Hydroxymethyl)-4-methylphenoxy)methyl)pyridin-2-yl)methyl)piperidin-1-yl)methyl)-1-(oxetan-2-ylmethyl)-1H-benzo[d]imidazole-6-carboxylic acid], the EC50 is under 50 nM.

As for `CCn1cncc1Cn1c(CN2CCC(CO)(Cc3ccnc(COc4ccc(Cl)cc4Cl)c3)CC2)nc2ccc(C(=O)O)cc21` [Example 150, 2-((4-((2-((2,4-Dichlorophenoxy)methyl)pyridin-4-yl)methyl)-4-(hydroxymethyl)piperidin-1-yl)methyl)-1-((1-ethyl-1H-imidazol-5-yl)methyl)-1H-benzo[d]imidazole-6-carboxylic acid], the concentration giving a half-maximal response (EC50) was under 50 nM.

`O=C(O)c1ccc2nc(CN3CCC(Cc4cccc(COc5ccc(C6CC6)cc5Cl)n4)CC3)n(C[C@@H]3CCO3)c2c1` [Example 152, (S)-2-((4-((6-((2-Chloro-4-cyclopropylphenoxy)methyl)pyridin-2-yl)methyl)piperidin-1-yl)methyl)-1-(oxetan-2-ylmethyl)-1H-benzo[d]imidazole-6-carboxylic acid]: the EC50 was under 50 nM.

`O=C(O)c1ccc2nc(CN3CCC(Cc4cnc(COc5cnc(C6CC6)cc5Cl)o4)CC3)n(C[C@@H]3CCO3)c2c1` [Example 154, (S)-2-((4-((2-(((4-Chloro-6-cyclopropylpyridin-3-yl)oxy)methyl)oxazol-5-yl)methyl)piperidin-1-yl)methyl)-1-(oxetan-2-ylmethyl)-1H-benzo[d]imidazole-6-carboxylic acid]: the EC50 is 50 to 500 nM.

For `CCn1cncc1Cn1c(CN2CCC(=Cc3ccnc(COc4ccc(Cl)cc4Cl)c3)CC2)nc2ccc(C(=O)O)cc21` [Example 155, 2-((4-((2-((2,4-Dichlorophenoxy)methyl)pyridin-4-yl)methylene)piperidin-1-yl)methyl)-1-((1-ethyl-1H-imidazol-5-yl)methyl)-1H-benzo[d]imidazole-6-carboxylic acid], the EC50 was under 50 nM.

With `CCn1cncc1Cn1c(CN2CCC(Oc3cccc(COc4ccc(Cl)cc4Cl)c3)CC2)nc2ccc(C(=O)O)cc21` [Example 157, 2-((4-(3-((2,4-Dichlorophenoxy)methyl)phenoxy)piperidin-1-yl)methyl)-1-((1-ethyl-1H-imidazol-5-yl)methyl)-1H-benzo[d]imidazole-6-carboxylic acid], the EC50 was under 50 nM.

`CCn1cncc1Cn1c(CN2CCC(C)(Cc3ccnc(COc4ccc(Cl)cc4Cl)c3)CC2)nc2ccc(C(=O)O)cc21` [Example 163, 2-((4-((2-((2,4-Dichlorophenoxy)methyl)pyridin-4-yl)methyl)-4-methylpiperidin-1-yl)methyl)-1-((1-ethyl-1H-imidazol-5-yl)methyl)-1H-benzo[d]imidazole-6-carboxylic acid]: the EC50 was under 50 nM.

For the molecule `CCn1cncc1Cn1c(CN2CCC(CF)(Cc3ccnc(COc4ccc(Cl)cc4Cl)c3)CC2)nc2ccc(C(=O)O)cc21` [Example 164, 2-((4-((2-((2,4-Dichlorophenoxy)methyl)pyridin-4-yl)methyl)-4-(fluoromethyl)piperidin-1-yl)methyl)-1-((1-ethyl-1H-imidazol-5-yl)methyl)-1H-benzo[d]imidazole-6-carboxylic acid], the half-maximal effective concentration (EC50) is under 50 nM.

Turning to `O=C(O)c1ccc2nc(CN3CCC(Oc4cc(COc5ccc(Cl)cc5Cl)ccn4)CC3)n(C[C@@H]3CCO3)c2c1` [Example 178, (S)-2-((4-((4-((2,4-Dichlorophenoxy)methyl)pyridin-2-yl)oxy)piperidin-1-yl)methyl)-1-(oxetan-2-ylmethyl)-1H-benzo[d]imidazole-6-carboxylic acid], the EC50 lay within 50 to 500 nM.

With `C[C@H]1CN(C(=O)c2cnc(COc3ccc(Cl)cc3Cl)o2)CCN1Cc1nc2ccc(C(=O)O)cc2n1C[C@@H]1CCO1` [Example 186, 2-(((S)-4-(2-((2,4-Dichlorophenoxy)methyl)oxazole-5-carbonyl)-2-methylpiperazin-1-yl)methyl)-1-(((S)-oxetan-2-yl)methyl)-1H-benzo[d]imidazole-6-carboxylic acid], the EC50 was under 50 nM.

Regarding `CCn1cncc1Cn1c(CN2CCC(C#N)(Cc3ccnc(COc4ccc(Cl)cc4Cl)c3)CC2)nc2ccc(C(=O)O)cc21` [Example 189, 2-((4-Cyano-4-((2-((2,4-dichlorophenoxy)methyl)pyridin-4-yl)methyl)piperidin-1-yl)methyl)-1-((1-ethyl-1H-imidazol-5-yl)methyl)-1H-benzo[d]imidazole-6-carboxylic acid], the EC50 was under 50 nM.

Consider `O=C(O)c1ccc2nc(CN3CCC(Oc4cccc(COc5ccc(Cl)cc5Cl)n4)CC3)n(C[C@@H]3CCO3)c2c1` [Example 198, (S)-2-((4-((6-((2,4-Dichlorophenoxy)methyl)pyridin-2-yl)oxy)piperidin-1-yl)methyl)-1-(oxetan-2-ylmethyl)-1H-benzo[d]imidazole-6-carboxylic acid], for which the EC50 is under 50 nM.

Turning to `N#Cc1cc(F)ccc1OCc1cccc(OC2CCN(Cc3nc4ccc(C(=O)O)cc4n3C[C@@H]3CCO3)CC2)c1` [Example 206, (S)-2-((4-(3-((2-Cyano-4-fluorophenoxy)methyl)phenoxy)piperidin-1-yl)methyl)-1-(oxetan-2-ylmethyl)-1H-benzo[d]imidazole-6-carboxylic acid], the EC50 was under 50 nM.

Turning to `O=C(O)c1ccc2nc(CN3CCC(Oc4cccc(COc5ccc(Cl)cc5Cl)c4)CC3)n(Cc3ccno3)c2c1` [Example 208, 2-((4-(3-((2,4-Dichlorophenoxy)methyl)phenoxy)piperidin-1-yl)methyl)-1-(isoxazol-5-ylmethyl)-1H-benzo[d]imidazole-6-carboxylic acid], the 50% effective concentration (EC50) is under 50 nM.

Turning to `O=C(O)c1ccc2nc(CN3CCC(Oc4cccc(COc5ccc(Cl)cc5Cl)c4)CC3)n(Cc3cnco3)c2c1` [Example 216, 2-((4-(3-((2,4-Dichlorophenoxy)methyl)phenoxy)piperidin-1-yl)methyl)-1-(oxazol-5-ylmethyl)-1H-benzo[d]imidazole-6-carboxylic acid], the 50% effective concentration (EC50) is under 50 nM.

`O=C(O)c1ccc2nc(CN3CCC(Oc4ccnc(COc5ccc(F)cc5Cl)c4)CC3)n(C[C@@H]3CCO3)c2c1` [Example 220, (S)-2-((4-((2-((2-Chloro-4-fluorophenoxy)methyl)pyridin-4-yl)oxy)piperidin-1-yl)methyl)-1-(oxetan-2-ylmethyl)-1H-benzo[d]imidazole-6-carboxylic acid]: the EC50 was under 50 nM.

With `CCn1cncc1Cn1c(CN2CCC(Oc3ccnc(COc4ccc(Cl)cc4F)c3)CC2)nc2ccc(C(=O)O)cc21` [Example 230, 2-((4-((2-((4-Chloro-2-fluorophenoxy)methyl)pyridin-4-yl)oxy)piperidin-1-yl)methyl)-1-((1-ethyl-1H-imidazol-5-yl)methyl)-1H-benzo[d]imidazole-6-carboxylic acid], the EC50 is under 50 nM.

With `CCn1cncc1Cn1c(CN2CCC(Oc3ccnc(COc4ccc(C#N)cc4F)n3)CC2)nc2ccc(C(=O)O)cc21` [Example 261, 2-((4-((2-((4-Cyano-2-fluorophenoxy)methyl)pyrimidin-4-yl)oxy)piperidin-1-yl)methyl)-1-((1-ethyl-1H-imidazol-5-yl)methyl)-1H-benzo[d]imidazole-6-carboxylic acid], the EC50 is under 50 nM.

Turning to `N#Cc1ccc(OCc2nccc(OC3CCN(Cc4nc5ccc(C(=O)O)cc5n4C[C@@H]4CCO4)CC3)n2)c(F)c1` [Example 262, (S)-2-((4-((2-((4-Cyano-2-fluorophenoxy)methyl)pyrimidin-4-yl)oxy)piperidin-1-yl)methyl)-1-(oxetan-2-ylmethyl)-1H-benzo[d]imidazole-6-carboxylic acid], the EC50 was under 50 nM.

Turning to `CCn1cncc1Cn1c(CN2CCC(Oc3cccnc3COc3ccc(Cl)cc3Cl)CC2)nc2ccc(C(=O)O)cc21` [Example 271, 2-((4-((2-((2,4-Dichlorophenoxy)methyl)pyridin-3-yl)oxy)piperidin-1-yl)methyl)-1-((1-ethyl-1H-imidazol-5-yl)methyl)-1H-benzo[d]imidazole-6-carboxylic acid], the EC50 was 50 to 500 nM.

As to `CCn1cncc1Cn1c(CN2CC[C@H](Oc3ccnc(COc4ccc(Cl)cc4Cl)c3)C[C@@H]2C)nc2ccc(C(=O)O)cc21` [Example 274, 2-(((2S,4S)-4-((2-((2,4-Dichlorophenoxy)methyl)pyridin-4-yl)oxy)-2-methylpiperidin-1-yl)methyl)-1-((1-ethyl-1H-imidazol-5-yl)methyl)-1H-benzo[d]imidazole-6-carboxylic acid], the concentration giving a half-maximal response (EC50) was under 50 nM.

Regarding `CCn1cncc1Cn1c(CN2CCC(Oc3ccnc(COc4ccc(Cl)cc4C#N)c3)CC2(C)C)nc2ccc(C(=O)O)cc21` (stereo not drawn) [Example 276, 2-((4-((2-((4-Chloro-2-cyanophenoxy)methyl)pyridin-4-yl)oxy)-2,2-dimethylpiperidin-1-yl)methyl)-1-((1-ethyl-1H-imidazol-5-yl)methyl)-1H-benzo[d]imidazole-6-carboxylic acid], the EC50 was under 50 nM.
